# Measurements: patent US7256187B2, “Rifamycin C-11 oxime derivatives effective against drug-resistant microbes” (Cumbre Pharmaceuticals Inc., priority 2004, dated 2007)
# Experiments:
# Type in all cases: cell-based
# [1] = test system: Mycobacterium smegmatis ATCC700084; experiment: MIC, microbroth dilution; conditions: Mycolicibacterium smegmatis; Mycobacterium smegmatis ATCC700084, rifS; read-out: Antimicrobial activity (MIC)
# [2] = test system: Escherichia coli ATCC25922; experiment: MIC, microbroth dilution; conditions: Escherichia coli ATCC25922, rifS; read-out: Antimicrobial activity (MIC)
# [3] = test system: Haemophilus influenzae ATCC10211; experiment: MIC, microbroth dilution; conditions: Haemophilus influenzae ATCC10211, rifS; read-out: Antimicrobial activity (MIC)
# [4] = test system: Streptococcus pyogenes ATCC19615; experiment: MIC, microbroth dilution; conditions: Streptococcus pyogenes ATCC19615, rifS; read-out: Antimicrobial activity (MIC)
# [5] = test system: Streptococcus pneumoniae ATCC6303; experiment: MIC, microbroth dilution; conditions: Streptococcus pneumoniae ATCC6303, rifS; read-out: Antimicrobial activity (MIC)
# [6] = test system: Staphylococcus epidermidis ATCC12228; experiment: MIC, microbroth dilution; conditions: Staphylococcus epidermidis ATCC12228, rifS; read-out: Antimicrobial activity (MIC)
# [7] = test system: Staphylococcus aureus ATCC29213 rpoB^H418Y; experiment: microbe, parasite or virus in culture; conditions: Staphylococcus aureus ATCC29213 rpoB^H418Y, rifR; read-out: Antimicrobial activity (MIC)
# Protocol: (§1) Representative compounds were assayed for antimicrobial activity as follows: Minimum Inhibitory Concentrations (“MICs”) were determined by the microbroth dilution method as per NCCLS guidelines (National Committee for Clinical Laboratory Standards. 2000. Methods for dilution antimicrobial susceptibility tests for bacteria that grow aerobically, 5th ed. M7-A5. National Committee for Clinical Laboratory Standards, Wayne, Pa.), except that all growth incubations were conducted at 37° C. Bacterial cultures were tested in the following bacteriological media: S. aureus, S. epidermidis, and E. coli in Cation-Adjusted Mueller-Hinton Broth, S. pneumoniae in THY Broth supplemented with 1 mg/mL catalase under 5% CO2 atmosphere, S. pyogenes in THY Broth, E. faecalis in BHI Broth, H. influenzae in BHI Broth supplemented with 0.75 μL of 1 mg/mL NAD and 150 μL of 1 mg/ml hematin per 5 mL, and M. smegmatis in Middlebrook Broth plus ADC Enrichment.
# (§2) S. aureus ATCC 29213 RpoB^H418Y is a rifampin-resistant strain with a mutation in the RpoB gene of RNA polymerase. […] S. aureus EN1252a gyrA^S84L grlA^S80F is a quinolone-resistant strain due to double gene mutations of DNA gyrase and topoisomerase IV.
# [8] = test system: Staphylococcus aureus ATCC29213 rpoB^D417Y; experiment: microbe, parasite or virus in culture; conditions: Staphylococcus aureus ATCC29213 rpoB^D417Y, rifR; read-out: Antimicrobial activity (MIC)
# Protocol: as §1, §2
# [9] = test system: Staphylococcus aureus EN1252a gyrA^S84L grlA^S80F; experiment: microbe, parasite or virus in culture; conditions: Staphylococcus aureus EN1252a gyrA^S84L grlA^S80F, cipR; read-out: Antimicrobial activity (MIC)
# Protocol: as §1, §2
# [10] = test system: Enterococcus faecalis ATCC29212; experiment: MIC, microbroth dilution; conditions: Enterococcus faecalis ATCC29212, rifS; read-out: Antimicrobial activity (MIC)
# [11] = test system: Staphylococcus aureus ATCC29213; experiment: MIC, microbroth dilution; conditions: Staphylococcus aureus ATCC29213, rifS; read-out: Antimicrobial activity (MIC)
Compound,MIC [1] [µg/mL],MIC [2] [µg/mL],MIC [3] [µg/mL],MIC [4] [µg/mL],MIC [5] [µg/mL],MIC [6] [µg/mL],MIC [7] [µg/mL],MIC [8] [µg/mL],MIC [9] [µg/mL],MIC [10] [µg/mL],MIC [11] [µg/mL]
"CO[C@H]1/C=C/O[C@@]2(C)Oc3c(C)c(O)c4c(c3/C2=N/O)C(=O)C=C(NC(=O)/C(C)=C\C=C\[C@H](C)[C@H](O)[C@@H](C)[C@@H](O)[C@@H](C)[C@H](OC(C)=O)[C@@H]1C)C4=O [Example 7, 11-Deoxy-11-hydroxyiminorifamycin S]",0.5 to 64,0.125 to 8,0.03 to 2,0.0005 to 0.063,0.0002 to 0.125,0.0005 to 0.063,0.125 to 16,0.25 to 32,0.004 to 0.5,2 to 32,0.004 to 0.5
"CO[C@H]1/C=C/O[C@@]2(C)Oc3c(C)c(O)c4c(c3/C2=N/OCCN(CCO)CCO)C(=O)C=C(NC(=O)/C(C)=C\C=C\[C@H](C)[C@H](O)[C@@H](C)[C@@H](O)[C@@H](C)[C@H](OC(C)=O)[C@@H]1C)C4=O [Example 20, 11-Deoxy-11-{2-[bis-(2-hydroxy-ethyl)-amino]ethoxyimino}rifamycin S]",0.5 to 64,0.125 to 8,0.03 to 2,0.0005 to 0.063,0.0002 to 0.125,0.0005 to 0.063,0.125 to 16,0.25 to 32,0.004 to 0.5,2 to 32,0.004 to 0.5
"C=CCO/N=C1/c2c3c(C)c(O)c4c2C(=O)C=C(NC(=O)/C(C)=C\C=C\[C@H](C)[C@H](O)[C@@H](C)[C@@H](O)[C@@H](C)[C@H](OC(C)=O)[C@H](C)[C@@H](OC)/C=C/O[C@@]1(C)O3)C4=O [Example 11, 11-Deoxy-11-allyloxyiminorifamycin S]",0.5 to 64,0.125 to 8,0.03 to 2,0.0005 to 0.063,0.0002 to 0.125,0.0005 to 0.063,0.125 to 16,0.25 to 32,0.004 to 0.5,2 to 32,0.004 to 0.5
"CO[C@H]1/C=C/O[C@@]2(C)Oc3c(C)c(O)c4c(c3/C2=N/OCCN2CCN(c3ccccc3O)CC2)C(=O)C=C(NC(=O)/C(C)=C\C=C\[C@H](C)[C@H](O)[C@@H](C)[C@@H](O)[C@@H](C)[C@H](OC(C)=O)[C@@H]1C)C4=O [Example 26, 11-Deoxy-11-{2-[4-(2-hydroxy-phenyl)piperazin-1-yl]ethoxyimino}rifamycin S]",0.5 to 64,0.125 to 8,0.03 to 2,0.0005 to 0.063,0.0002 to 0.125,0.0005 to 0.063,0.125 to 16,0.25 to 32,0.004 to 0.5,2 to 32,0.004 to 0.5
"CO[C@H]1/C=C/O[C@@]2(C)Oc3c(C)c(O)c4c(c3/C2=N/OCCBr)C(=O)C=C(NC(=O)/C(C)=C\C=C\[C@H](C)[C@H](O)[C@@H](C)[C@@H](O)[C@@H](C)[C@H](OC(C)=O)[C@@H]1C)C4=O [Example 12, 11-Deoxy-11-(2-bromoethoxyimino)rifamycin S]",0.5 to 64,0.125 to 8,0.03 to 2,0.0005 to 0.063,0.0002 to 0.125,0.0005 to 0.063,0.125 to 16,0.25 to 32,0.004 to 0.5,2 to 32,0.004 to 0.5
"CO[C@H]1/C=C/O[C@@]2(C)Oc3c(C)c(O)c4c(c3/C2=N/OCCN2CCN(S(=O)(=O)c3cccc5ccncc35)CC2)C(=O)C=C(NC(=O)/C(C)=C\C=C\[C@H](C)[C@H](O)[C@@H](C)[C@@H](O)[C@@H](C)[C@H](OC(C)=O)[C@@H]1C)C4=O [Example 19, 11-Deoxy-11-{2-[4-(isoquinoline-8-sulfonyl)-piperazin-1-yl]-ethoxyimino}rifamycin S]",0.5 to 64,0.125 to 8,0.03 to 2,0.0005 to 0.063,0.0002 to 0.125,0.0005 to 0.063,0.125 to 16,0.25 to 32,0.004 to 0.5,2 to 32,0.004 to 0.5
CO[C@H]1/C=C/O[C@@]2(C)Oc3c(C)c(O)c4c(c3/C2=N/OCCN2CCN(c3ccc(N5C[C@H](CNC(C)=O)OC5=O)cc3F)CC2)C(=O)C=C(NC(=O)/C(C)=C\C=C\[C@H](C)[C@H](O)[C@@H](C)[C@@H](O)[C@@H](C)[C@H](OC(C)=O)[C@@H]1C)C4=O [Example 16],0.5 to 64,0.125 to 8,0.03 to 2,0.0005 to 0.063,0.0002 to 0.125,0.0005 to 0.063,0.125 to 16,0.25 to 32,0.004 to 0.5,2 to 32,0.004 to 0.5
CO[C@H]1/C=C/O[C@@]2(C)Oc3c(C)c(O)c4c(c3/C2=N/OCCN2CCOCC2)C(=O)C=C(NC(=O)/C(C)=C\C=C\[C@H](C)[C@H](O)[C@@H](C)[C@@H](O)[C@@H](C)[C@H](OC(C)=O)[C@@H]1C)C4=O [Example 24],0.5 to 64,0.125 to 8,0.03 to 2,0.0005 to 0.063,0.0002 to 0.125,0.0005 to 0.063,0.125 to 16,0.25 to 32,0.004 to 0.5,2 to 32,0.004 to 0.5
COc1c(N2CCN(CCO/N=C3/c4c5c(C)c(O)c6c4C(=O)C=C(NC(=O)/C(C)=C\C=C\[C@H](C)[C@H](O)[C@@H](C)[C@@H](O)[C@@H](C)[C@H](OC(C)=O)[C@H](C)[C@@H](OC)/C=C/O[C@@]3(C)O5)C6=O)C(C)C2)c(F)cc2c(=O)c(C(=O)O)cn(C3CC3)c12 (stereo partly drawn) [Example 13],0.5 to 64,0.125 to 8,0.03 to 2,0.0005 to 0.063,0.0002 to 0.125,0.0005 to 0.063,0.125 to 16,0.25 to 32,0.004 to 0.5,2 to 32,0.004 to 0.5
"CO[C@H]1/C=C/O[C@@]2(C)Oc3c(C)c(O)c4c(c3/C2=N/OCCN2CCC(O)CC2)C(=O)C=C(NC(=O)/C(C)=C\C=C\[C@H](C)[C@H](O)[C@@H](C)[C@@H](O)[C@@H](C)[C@H](OC(C)=O)[C@@H]1C)C4=O [Example 23, 11-Deoxy-11-[2-(4-hydroxypiperadin-1-yl)ethoxyimino]rifamycin S]",0.5 to 64,0.125 to 8,0.03 to 2,0.0005 to 0.063,0.0002 to 0.125,0.0005 to 0.063,0.125 to 16,0.25 to 32,0.004 to 0.5,2 to 32,0.004 to 0.5
"CO[C@H]1/C=C/O[C@@]2(C)Oc3c(C)c(O)c4c(c3/C2=N/OC(C)=O)C(=O)C=C(NC(=O)/C(C)=C\C=C\[C@H](C)[C@H](O)[C@@H](C)[C@@H](O)[C@@H](C)[C@H](OC(C)=O)[C@@H]1C)C4=O [Example 9, 11-Deoxy-11-acetoxyiminorifamycin S]",0.5 to 64,0.125 to 8,0.03 to 2,0.0005 to 0.063,0.0002 to 0.125,0.0005 to 0.063,0.125 to 16,0.25 to 32,0.004 to 0.5,2 to 32,0.004 to 0.5
"CO[C@H]1/C=C/O[C@@]2(C)Oc3c(C)c(O)c4c(c3/C2=N/OCC(=O)O)C(=O)C(N2CCOCC2)=C(NC(=O)/C(C)=C\C=C\[C@H](C)[C@H](O)[C@@H](C)[C@@H](O)[C@@H](C)[C@H](OC(C)=O)[C@@H]1C)C4=O [Example 28, 11-Deoxy-3-(morpholin-4-yl)-11-(4-carboxymethoxyimino)-rifamycin S]",0.5 to 64,0.125 to 8,0.03 to 2,0.0005 to 0.063,0.0002 to 0.125,0.0005 to 0.063,0.125 to 16,0.25 to 32,0.004 to 0.5,2 to 32,0.004 to 0.5
